Values quoted from earlier work, collected in patent US20230149383A1, “QUINOLINE COMPOUNDS FOR TREATING LUNG, LIVER, AND KIDNEY DISEASES, DISORDERS, OR CONDITIONS” (Aldeyra Therapeutics, Inc., priority 2020, published 2023).

Experiments:
[1] = tested on: precision-cut liver slices (PCLS); conditions: addition of 4-methylpyrazole; cited from earlier work
minimal change disease = conditions: Hogan et al. 2013; cited from earlier work
ocular inflammation = conditions: Phase 2 and Phase 3 clinical trials; cited from earlier work

In the case of Cc1cn[nH]c1 [4-methylpyrazole], the “ethanol-induced impairments (fatty liver, redox state, albumin secretion)” value [1] is listed as “reversed”.

In the case of C[C@]12C=CC(=O)C=C1CC[C@@H]1[C@@H]2[C@@H](O)C[C@@]2(C)[C@H]1CC[C@]2(O)C(=O)CO [prednisolone], the “complete remission, share of adults with minimal change disease” value (minimal change disease) is given as “over 80%”.

In the case of CC(C)(O)c1nc2ccc(Cl)cc2cc1N [reproxalap], the “benefit in ocular inflammation, including dry eye disease and allergic conjunctivitis” value (ocular inflammation) is listed as “beneficial”.
